One assay has as its target SRPK1 (Homo sapiens, UniProt Q96SB4). As to the kind of experiment: In vitro kinase assay (Kinase-Glo), SRPK1. It is filed as biochemical. As to conditions: for activity in the in vitro SRPK1 kinase assay: words.
In a further assay the target is SRPK2 (Homo sapiens, UniProt P78362). As to the kind of experiment: In vitro kinase assay, SRPK2. It is filed as biochemical.
For assay [1], the system named is SRPK1 expression in ARPE-19 cells. As to the kind of experiment: SRPK1 expression in ARPE-19 cells (western blot). The conditions noted are these: 10 μM, up to six days. In kind it is cell-based, human.
Assay [2] has as its system SRSF1 expression in ARPE-19 cells. As to the kind of experiment: SRSF1 expression relative to tubulin in ARPE-19 cells. In kind it is cell-based, human. The conditions noted are these: 72 hours up to six days. As for the experimental part: Protein samples (30-50 μg) were mixed with 1× sodium-dodecyl sulphate (SDS) loading buffer (100 mM Tris-HCl, 4% SDS, 20% glycerol, 0.2% (w/v) bromophenol blue, and 5% final concentration 2-mercaptoethanol, pH6.8). To denature the protein, samples were boiled for five minutes at 100° C.
Samples were subjected to polyacrylamide gel electrophoresis (PAGE) on a 12% SDS-PAGE gel at 90V in ice cold running buffer (25 mM Tris-HCl, 250 mM glycine, 0.1% SDS, pH8.3) for approximately 2.5 hours. The separated proteins were then electrophoretically blotted to a methanol-activated polyvinylidene fluoride (PVDF) membrane (Fisher Scientific) by wet transfer for two hours at 90V in transfer buffer (50 mM Tris-HCl, 38 mM glycine, 20% methanol, pH8.3). […] The washes were repeated and the bands were detected using the Enhanced Chemoluminiscence (ECL) SuperSignal West Femto Maximum Sensitivity Substrate kit (Pierce).
The SRPK inhibitors were tested in a series of in vitro assays to determine the effect of treatment on VEGF isoform expression. Initially the effect of compound treatment on SRPK1 and SRSF1 expression was determined.

For assay [3], the system named is VEGF165 mRNA isoforms in primary RPE cells. As to the kind of experiment: RT-PCR for VEGF165 / VEGF165b mRNA in primary RPE cells. The conditions noted are these: 5 μM, 24 hours, primary RPE cells. In kind it is cell-based, human. How it is done:
ID NO: 5)). […] Cells were treated with […]6 and 7 and the PCR repeated.

A further assay has as its system VEGF protein expression. As to the kind of experiment: PanVEGF and VEGFxxxb ELISA. The conditions noted are these: FIG. 2C. It is filed as cell-based, human. How it is done:
PanVEGF and VEGFxxxb enzyme-linked immunosorbent assay (ELISA).
One μg/ml pan-VEGF capture antibody (Duoset VEGF ELISA DY-293; R&D systems) was incubated overnight at room temperature. The plates were blocked (Superblock; Thermo Scientific) and serial dilutions of recombinant human (rh)VEGF165 or rhVEGF165b standards (ranging from 4 ng/ml to 16.25 pg/ml) were added, incubated alongside sample lysates, typically diluted 1:10. The plate was incubated for one hour at 37° C. with shaking, washed and incubated with 100 μl/well of either biotinylated goat anti-human VEGF (0.1 μg/ml; R & D systems) or mouse anti-human VEGF165b (0.25 μg/ml) for one further hour at 37° C. After washing, 100 μl/well of Horseradish Peroxidase (HRP)-conjugated streptavidin (1:200; R&D Systems) was added, and plates were left at room temperature for 20 minutes.
The plates were washed and colour change induced with substrate A and B (DY-999; R&D Systems) for 20 mins under light protection. The reaction was stopped by addition of 100 μl/well of 1M H2SO4 and the absorbance was read immediately in an ELISA plate reader (Dynex Technologies Opsys MR system plate reader) at 450 nm with a control reading at 570 nm. Revelation Quicklink 4.25 software was also used to calculate a standard curve from mean absorbance values of standards enabling the estimation of VEGF concentration for each sample.

Another assay concerns laser-induced CNV. As to the kind of experiment: Laser-induced mouse CNV model, intravitreal injection. In kind it is in vivo. As for the experimental part:
Laser Lesion Induction Protocol
Six to eight week-old C57/B6 mice (B&K Laboratories) and adult Norway-Brown rats (Harlan Laboratories) were anaesthetized with an intraperitoneal injection of a mixture of 50 mg/kg ketamine and 0.5 mg/kg medetomidine. The pupils were dilated with 2.5% phenylephrine hydrochloride and 1% tropicamide. Four photocoagulation lesions were delivered with a krypton red laser (Mice: 250 mW, 0.01 s, 75 μm, Rats: 200 mW, 0.01 s, 75 μm, IRIS Medical 810 nm Oculight Slx laser) between the retinal vessels in a peripapillary distribution at a distance of 1-2 disc-diameters in each eye. Only laser lesions with a subretinal bubble at the time of treatment were included in the study. […] Animals were culled on either day 4 or day 14 and eyes were either unfixed for retinal dissection and protein extraction, or fixed and enucleated and choroids stained for isolectin-B4 and examined.

For the next assay, the system named is CNV lesion area. The conditions noted are these: cited from earlier work.
The test system of the next assay is neovascular AMD. As to conditions: 0.5 mg monthly, at one year; cited from earlier work.
[4] abbreviates: Table 1, read-out: IC50 (nM) for SRPK1.

Like-named read-outs stand apart in the source and are kept apart here.

The values below come from patent publication US10301264B2, “Compounds useful for treating ocular neovasculan” (The University of Nottingham, priority 2012, dated 2019).

SRPK1, sequence (Q96SB4 whole entry, species assumed): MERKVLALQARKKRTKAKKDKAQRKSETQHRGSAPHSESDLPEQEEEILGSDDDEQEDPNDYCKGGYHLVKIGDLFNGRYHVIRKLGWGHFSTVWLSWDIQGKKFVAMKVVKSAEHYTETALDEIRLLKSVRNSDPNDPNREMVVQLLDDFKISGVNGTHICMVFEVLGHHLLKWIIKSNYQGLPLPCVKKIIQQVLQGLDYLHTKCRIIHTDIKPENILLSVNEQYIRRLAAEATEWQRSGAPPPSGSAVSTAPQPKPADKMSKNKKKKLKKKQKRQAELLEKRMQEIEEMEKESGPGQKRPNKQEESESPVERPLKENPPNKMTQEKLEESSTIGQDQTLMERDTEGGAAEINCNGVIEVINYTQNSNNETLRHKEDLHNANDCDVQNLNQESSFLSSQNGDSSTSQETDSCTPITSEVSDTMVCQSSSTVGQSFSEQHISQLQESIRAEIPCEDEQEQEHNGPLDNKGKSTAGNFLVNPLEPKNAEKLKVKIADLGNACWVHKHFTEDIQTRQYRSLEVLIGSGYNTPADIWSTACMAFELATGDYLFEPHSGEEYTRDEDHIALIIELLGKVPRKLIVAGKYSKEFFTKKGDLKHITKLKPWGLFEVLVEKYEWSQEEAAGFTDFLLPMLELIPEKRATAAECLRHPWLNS
SRPK2, sequence (P78362 whole entry, species assumed): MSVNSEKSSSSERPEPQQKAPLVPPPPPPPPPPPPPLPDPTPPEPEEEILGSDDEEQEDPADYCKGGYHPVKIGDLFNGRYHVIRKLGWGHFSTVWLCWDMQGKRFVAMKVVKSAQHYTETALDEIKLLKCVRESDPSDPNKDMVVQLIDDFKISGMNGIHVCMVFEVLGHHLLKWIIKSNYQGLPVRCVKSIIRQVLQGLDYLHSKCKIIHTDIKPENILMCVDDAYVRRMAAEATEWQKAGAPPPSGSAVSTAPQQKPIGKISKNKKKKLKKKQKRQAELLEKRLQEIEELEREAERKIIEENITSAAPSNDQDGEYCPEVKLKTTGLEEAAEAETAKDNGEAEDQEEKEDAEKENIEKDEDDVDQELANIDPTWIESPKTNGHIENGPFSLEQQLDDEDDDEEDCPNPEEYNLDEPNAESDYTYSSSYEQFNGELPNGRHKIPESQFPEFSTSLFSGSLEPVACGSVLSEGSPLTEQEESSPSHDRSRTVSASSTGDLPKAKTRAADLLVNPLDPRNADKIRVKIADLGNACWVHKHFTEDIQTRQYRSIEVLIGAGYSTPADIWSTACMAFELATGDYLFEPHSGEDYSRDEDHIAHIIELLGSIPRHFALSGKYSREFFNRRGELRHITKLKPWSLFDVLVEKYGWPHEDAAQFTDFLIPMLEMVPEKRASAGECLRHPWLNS

Consider `O=C(Nc1cc(C(F)(F)F)ccc1N1CCOCC1)c1cccnc1` [MVRL09, N-[2-(morpholin-4-yl)-5-(trifluoromethyl)phenyl]pyridine-3-carboxamide], for which, at SRPK1 (FIG. 1B, read-out: IC50 SRPK1 kinase), the IC50 is more than 10000 nM. In addition, the “inhibition of SRPK2” value on SRPK2 (words) was “no inhibition”. Further, the SRPK1 expression result in assay [1] was “failed to affect SRPK1 expression”. The “expression of SRSF1 relative to a tubulin control” value in assay [2] was “reduced expression of SRSF1”. In assay [3], the “expression of VEGF165b mRNA” value is “induced clear expression of VEGF165b” and the “expression of VEGF165 mRNA relative to GAPDH” value is on record as “reduced the expression VEGF65 at RNA level”. For the same molecule, the “VEGF expression relative to total protein” value in the assay on VEGF protein expression was “significantly reduced total VEGF expression”.
Turning to `CN(C)CCN1CCN(c2ccc(C(F)(F)F)cc2NC(=O)c2ccc(-c3cccnc3)o2)CC1` [SPHINX6], the IC50 on SRPK1 (FIG. 7, read-out: SRPK1 inhibition IC50) worked out at 173 nM; at SRPK1 (setting [4]), 177 nM.
With `CN(C)CCNc1ccc(C(F)(F)F)cc1NC(=O)c1ccc(-c2cccnc2)o1` [SPHINX8], the IC50 on SRPK1 (setting [4]) was found to be 9310 nM. In addition, the “activity in the in vitro SRPK1 kinase assay” value on SRPK1 was “no activity”.
Regarding `O=C(Nc1cc(C(F)(F)F)ccc1NCc1cccnc1)c1ccc(-c2cccnc2)o1` [SPHINX9], on SRPK1 (setting [4]), the IC50 is more than 10000 nM. In addition, the “activity in the in vitro SRPK1 kinase assay” value on SRPK1 was “no activity”.
For `O=C(Nc1cc(C(F)(F)F)ccc1NCc1cccnc1)c1ccc(-c2ccncc2)o1` [SPHINX10] the same measures were more than 10000 nM and “no activity”.
Take `CN1CCN(c2ccc(C(F)(F)F)cc2NC(=O)c2ccc(-c3cccnc3)o2)CC1` [SPHINX12]: the IC50 on SRPK1 (setting [4]) was 367 nM.
On to `CN1CCN(c2ccc(C(F)(F)F)cc2NC(=O)c2ccc(C#N)o2)CC1` [SPHINX14], for which, on SRPK1 (setting [4]), the IC50 came to 1270 nM.
Take `Cc1ccc(C(=O)Nc2cc(C(F)(F)F)ccc2N2CCOCC2)o1` [SPHINX, 5-methyl-N-[2-(morpholin-4-yl)-5-(trifluoromethyl)phenyl]furan-2-carboxamide]: the “preference for SRPK1 over SRPK2” value at SRPK2 is given as “greater than 10 fold”. For the same molecule, on SRPK2 (at 10 μM), 10 µM produced 10% inhibition. In assay [1], the SRPK1 expression entry is “did appear to reduce SRPK1 expression”. Moreover, the “area of neovascular lesions, mouse laser-induced CNV model” value in the assay with laser-induced CNV (discussion summary, route not stated) was “achieving significance”. The “neovascular area vs control injected eyes” value in the assay with laser-induced CNV (two intravitreal injections of 10 ng, mouse) is “significantly reduced neovascular area”.
`Cc1cc(-c2cc(OC(=O)c3ccccc3)ccc2Cl)cc2nnc(Nc3ccc(OCCN4CCCC4)cc3)nc12` [TG100801]: the CNV lesion area entry was “not” with CNV lesion area (twice daily topical 0.6%) and “significantly reduced CNV lesion area” with CNV lesion area (twice daily topical 1%).

B1: Lucentis: humanized anti-VEGF antibody fragment, FDA approved for the treatment of neovascular AMD (antibody, chains of the INN, looked up, V domains shown)
VH: EVQLVESGGGLVQPGGSLRLSCAASGYDFTHYGMNWVRQAPGKGLEWVGWINTYTGEPTYAADFKRRFTFSLDTSKSTAYLQMNSLRAEDTAVYYCAKYPYYYGTSHWYFDVWGQGTLVTVSS
VL: DIQLTQSPSSLSASVGDRVTITCSASQDISNYLNWYQQKPGKAPKVLIYFTSSLHSGVPSRFSGSGSGTDFTLTISSLQPEDFATYYCQQYSTVPWTFGQGTKVEIK
modifications: Fab
notes: humanized anti-VEGF antibody fragment, FDA approved for the treatment of neovascular AMD
On to B1, for which, in the assay on neovascular AMD, the “patients who maintained visual acuity (loss of <15 letters)” value is “approximately 95%” and the “patients with improved vision (gain of ≥15 letters)” value is listed as not above 40%.
